What was measured:
[1] = test system: lipopolysaccharide-injected KM mice, forced swimming test; assay: Measurement of antidepressant effect, lipopolysaccharide / forced swimming test; type: in vivo; details: subcutaneous injection 23 hours after lipopolysaccharide, test 1 hour later, FIG. 7
Experimental: Male KM mice (6 to 8 weeks old) (SPF (Beijing) Biotechnology Co., Ltd.) swam in advance for 10 min, and were injected with lipopolysaccharide (0.5 mg/kg). After 23 hours, the mice were subcutaneously injected with the solutions of the compounds of Examples 12 and 40 or the blank solvent. After 1 hour, the mice were subjected to the forced swimming test for 6 min, and the immobility time (s) in later 4 minute for the mice in each group was recorded.

[2] = biological target: T1, sEH enzyme (human recombinant) (Homo sapiens, UniProt P34913); assay: in vitro IC50 of soluble epoxide hydrolase (sEH) by fluorescence analysis; type: biochemical
T1 construct: purchased Cayman Chemical
T1 sequence (P34913 1-555): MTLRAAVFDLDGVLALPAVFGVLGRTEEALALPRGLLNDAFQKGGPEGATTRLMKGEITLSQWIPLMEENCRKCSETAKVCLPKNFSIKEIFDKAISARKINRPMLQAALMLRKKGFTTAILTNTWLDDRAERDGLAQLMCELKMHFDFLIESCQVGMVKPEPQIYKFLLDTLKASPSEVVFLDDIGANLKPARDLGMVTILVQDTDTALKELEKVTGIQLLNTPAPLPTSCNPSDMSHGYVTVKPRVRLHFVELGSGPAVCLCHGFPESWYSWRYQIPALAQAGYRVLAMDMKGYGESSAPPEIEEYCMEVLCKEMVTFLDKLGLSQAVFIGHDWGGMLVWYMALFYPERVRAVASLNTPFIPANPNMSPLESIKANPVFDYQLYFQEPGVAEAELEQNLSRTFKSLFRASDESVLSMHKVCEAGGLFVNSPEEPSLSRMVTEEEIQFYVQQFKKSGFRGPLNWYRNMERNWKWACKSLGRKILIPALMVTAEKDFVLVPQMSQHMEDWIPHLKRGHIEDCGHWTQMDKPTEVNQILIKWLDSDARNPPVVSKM
Experimental: The benzothiazole skeleton compounds according to the above formula I of the present invention were tested for the in vitro sEH enzyme activity by fluorescence analysis. […] 12 μL of sEH enzyme (human recombinant, 0.5 mg/mL, Cayman Chemical) was diluted with 588 μL of buffer (25 mM bis-Tris, pH 7.0). […] The inhibitions at different concentrations for the compound were respectively measured in accordance with the inhibition assay, to calculate IC50.

[3] = test system: carrageenan-induced paw swelling in KM mice; assay: Measurement of anti-inflammatory effect, carrageenan-induced paw swelling; type: in vivo; details: intraperitoneal injection 1 hour before carrageenan, FIG. 3
Experimental: 1 hour in advance, the mice were intraperitoneally injected with the solutions of the compounds of Examples 12, 18, 27, and 40 (10% PEG 400, 10% Tween 80) or the blank solvent, respectively. Taking the initial paw thickness of the mice before modeling as 100%, the changes in the paw thickness of the mice were measured.

[4] = test system: STZ-induced retinopathy model Wistar rats; assay: Improvement effect on diabetic retinopathy, STZ-induced retinopathy model; type: in vivo; details: 0.1% eye drops topically every day, after 6 months, FIG. 5
Experimental: Male Wistar rats (180 to 200 g) (Experimental Animal Center, Hebei Medical University) were intraperitoneally injected with streptozotocin STZ (60 mg/kg) to prepare a diabetic model, and were fed for 3 months to induce a retinopathy model (Miyamoto K, Khosrof S, Bursell S E, et al. Prevention of leukostasis and vascular leakage in streptozotocin-induced diabetic retinopathy via intercellular adhesion molecule-1 inhibition. Proc Natl Acad Sci USA, 1999, 96(19): 10836-10841). The compound of Example 40 was dissolved in 10% hydroxypropyl-p-cyclodextrin solution, to be prepared into eye drops with a content of 0.1% for the compound of Example 40. The rats were topically administrated in eyes every day.

[5] = biological target: T1, sEH enzyme (human recombinant); assay: in vitro sEH enzyme activity by fluorescence analysis, single concentration inhibition; type: biochemical; details: compound 0.1 μM; human recombinant sEH; PHOME substrate; 37° C. 15 min; read-out: sEH % inhibition, @ 0.1 μM
Experimental: The benzothiazole skeleton compounds (concentration: 0.1 μM) according to the above formula I of the present invention were tested for the in vitro sEH enzyme activity by fluorescence analysis.
12 μL of sEH enzyme (human recombinant, 0.5 mg/mL, Cayman Chemical) was diluted with 588 μL of buffer (25 mM bis-Tris, pH 7.0). The fluorescent substrate was PHOME (cyano-(6-methoxy-naphthalen-2-yl)-methyl (3-phenyl-oxiranyl)-acetate) in DMSO (10 μM, Cayman Chemical). The compound to be tested was dissolved in 100% DMSO at a concentration of 4 μM. 185 μL of buffer (25 mM bis-Tris, pH 7.0), 5 μL of compound solution, and 5 μL of diluted sEH enzyme were added to the wells of a 96-well plate, and finally 5 μL of substrate solution was added to initiate the reaction. After incubating at 37° C. for 15 min, the fluorescence signal was measured with a microplate reader (excitation wavelength 330 nm, emission wavelength 465 nm).
Inhibition (%)=(F0−F1)/(F0)×100.

[6] = test system: carrageenan inflammatory pain model SD rats; assay: Measurement of analgesic effect, carrageenan inflammatory pain model, hot plate; type: in vivo; details: intragastric suspension 15 mg/mL, 1 hour before modeling, FIG. 6
Experimental: Male SD rats (6 to 8 weeks old) (SPF (Beijing) Biotechnology Co., Ltd.) were subcutaneously injected with 50 μL of 1% λ-carrageenan saline solution at planta to prepare an inflammatory pain model (Rose T E, Morisseau C, Liu J Y, et al. 1-Aryl-3-(1-acylpiperidin-4-yl)urea inhibitors of human and murine soluble epoxide hydrolase: structure-activity relationships, pharmacokinetics, and reduction of inflammatory pain. J Med Chem, 2010, 53(19): 7067-7075). The compounds of Examples 12 and 40 were added to 0.5% sodium carboxymethylcellulose solution and ground to prepare a suspension with a concentration of 15 mg/mL. 1 hour before modeling, the rats were intragastrically administrated. The changes in the paw withdrawal time of rats were measured with a hot plate dolorimeter.

O=C(Nc1ccc(Cl)cc1)Nc1nc2ccc(N(CCN3CCOCC3)C(=O)Nc3ccc(Cl)cc3)cc2s1 [Example 40, 1-{2-[3-(4-chlorophenyl)ureido]benzo[d]thiazol-6-yl}-1-[2-(4-morpholinyl)ethyl]-3-(4-chlorophenyl)urea] was tested, and the “immobility time in forced swimming” value [1] was “significantly reduce the immobility time”, the IC50 [2] was 0.11 nM and the “carrageenan-induced paw swelling (paw thickness)” value [3] was “significantly inhibit”. For the same compound, the “effect on paw swelling compared with celecoxib” value [3] was “better than that of celecoxib”, the “non-proliferative diabetic retinopathy symptoms (retinal capillary free pericytes, vascular leakage)” value [4] was “significantly alleviated” and the inhibition at 0.1 µM [5] was 43%. The “paw withdrawal time in hot plate dolorimeter” value [6] was “significantly prolong the paw withdrawal time”.

From patent US20230219911A1, “BENZOTHIAZOLE DERIVATIVES AND USES THEREOF” (SHENYANG PHARMACEUTICAL UNIVERSITY, priority 2020, published 2023)
